Results published in ChEMBL document CHEMBL4421717, “Antagonists and agonists of bitter taste receptors and uses thereof” (2012).
Activity calls are given as the source filed them. The calls are words filed in the database; no cut-off is given here.

What was measured:
Format in all cases: functional, cell-based
[1] = target: T1, Taste receptor type 2 member 14 (Homo sapiens) (UniProt Q9NYV8); assay: Agonist activity at recombinant human N-terminal rat ST3 receptor-fused TAS2R14 expressed in HEK293T cells co-expressing Galpha16gust44 assessed as effect on intracellular calcium level at 100 uM by FLIPR assay
T1 sequence (whole entry): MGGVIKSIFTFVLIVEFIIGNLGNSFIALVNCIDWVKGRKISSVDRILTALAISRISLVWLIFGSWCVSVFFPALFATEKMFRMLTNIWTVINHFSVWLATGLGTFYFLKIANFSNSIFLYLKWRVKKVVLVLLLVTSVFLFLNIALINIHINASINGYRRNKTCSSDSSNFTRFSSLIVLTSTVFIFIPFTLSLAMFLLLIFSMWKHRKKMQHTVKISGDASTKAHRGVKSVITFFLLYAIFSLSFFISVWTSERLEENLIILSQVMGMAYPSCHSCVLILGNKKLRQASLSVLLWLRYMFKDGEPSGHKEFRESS

[2] = target: T2, Taste receptor type 2 member 1 (Homo sapiens) (UniProt Q9NYW7); assay: Activity at recombinant human N-terminal rat ST3 receptor-fused TAS2R1 expressed in HEK293T cells co-expressing Galpha16gust44 assessed as effect on trans-isocohumulone-induced intracellular calcium level at 100 uM by FLIPR assay
T2 sequence (whole entry): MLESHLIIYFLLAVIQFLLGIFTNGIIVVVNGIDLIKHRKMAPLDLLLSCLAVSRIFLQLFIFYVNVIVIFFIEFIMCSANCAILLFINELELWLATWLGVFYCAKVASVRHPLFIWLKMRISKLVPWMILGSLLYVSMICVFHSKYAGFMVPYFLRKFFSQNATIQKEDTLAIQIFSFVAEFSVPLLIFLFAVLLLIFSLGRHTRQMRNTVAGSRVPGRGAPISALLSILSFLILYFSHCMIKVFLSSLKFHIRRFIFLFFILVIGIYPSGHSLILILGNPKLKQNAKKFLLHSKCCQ

[3] = target: T3, Taste receptor type 2 member 46 (Homo sapiens, UniProt P59540); assay: Antagonist activity at recombinant human N-terminal rat ST3 receptor-fused TAS2R46 expressed in HEK293T cells co-expressing Galpha16gust44 assessed as inhibition of 300 uM denatonium benzoate-induced intracellular calcium level 100 uM by FLIPR assay
T3 sequence (P59540 whole entry): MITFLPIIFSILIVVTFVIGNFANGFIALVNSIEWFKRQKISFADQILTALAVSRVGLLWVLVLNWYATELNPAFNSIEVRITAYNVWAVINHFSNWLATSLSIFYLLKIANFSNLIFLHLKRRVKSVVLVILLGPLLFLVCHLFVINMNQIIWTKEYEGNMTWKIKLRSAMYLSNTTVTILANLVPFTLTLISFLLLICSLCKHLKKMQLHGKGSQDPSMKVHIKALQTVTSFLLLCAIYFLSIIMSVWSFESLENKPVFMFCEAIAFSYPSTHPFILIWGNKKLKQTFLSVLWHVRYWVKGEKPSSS

[4] = target: T4, Taste receptor type 2 member 10 (Homo sapiens) (UniProt Q9NYW0); assay: Activity at recombinant human N-terminal rat ST3 receptor-fused TAS2R10 expressed in HEK293T cells co-expressing Galpha16gust44 assessed as effect on strychnine-induced intracellular calcium level at 100 uM by FLIPR assay
T4 sequence (whole entry): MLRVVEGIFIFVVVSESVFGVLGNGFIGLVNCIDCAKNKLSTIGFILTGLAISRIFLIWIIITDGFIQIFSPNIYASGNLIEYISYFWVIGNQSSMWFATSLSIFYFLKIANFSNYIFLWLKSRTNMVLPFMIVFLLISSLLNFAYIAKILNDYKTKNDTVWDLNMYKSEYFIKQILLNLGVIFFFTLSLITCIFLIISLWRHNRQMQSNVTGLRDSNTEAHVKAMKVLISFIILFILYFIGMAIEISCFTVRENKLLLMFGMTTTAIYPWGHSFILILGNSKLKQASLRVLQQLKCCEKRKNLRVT

[5] = target: T5, Taste receptor type 2 member 20 (Homo sapiens) (UniProt P59543); assay: Activity at recombinant human N-terminal rat ST3 receptor-fused TAS2R49 expressed in HEK293T cells co-expressing Galpha16gust44 assessed as effect on cromolyn-induced intracellular calcium level at 100 uM by FLIPR assay
T5 sequence (whole entry): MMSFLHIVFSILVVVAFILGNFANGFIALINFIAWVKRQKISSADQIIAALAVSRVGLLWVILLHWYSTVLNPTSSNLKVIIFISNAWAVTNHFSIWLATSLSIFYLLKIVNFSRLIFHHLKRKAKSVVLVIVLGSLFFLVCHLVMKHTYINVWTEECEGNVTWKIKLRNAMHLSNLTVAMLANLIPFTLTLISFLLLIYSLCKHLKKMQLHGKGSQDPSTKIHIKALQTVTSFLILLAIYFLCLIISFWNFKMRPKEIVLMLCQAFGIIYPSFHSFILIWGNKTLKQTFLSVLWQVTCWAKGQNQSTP

[6] = target: T6, Taste receptor type 2 member 50 (Homo sapiens) (UniProt P59544); assay: Activity at recombinant human N-terminal rat ST3 receptor-fused TAS2R50 expressed in HEK293T cells co-expressing Galpha16gust44 assessed as effect on andrographolide-induced intracellular calcium level at 100 uM by FLIPR assay
T6 sequence (whole entry): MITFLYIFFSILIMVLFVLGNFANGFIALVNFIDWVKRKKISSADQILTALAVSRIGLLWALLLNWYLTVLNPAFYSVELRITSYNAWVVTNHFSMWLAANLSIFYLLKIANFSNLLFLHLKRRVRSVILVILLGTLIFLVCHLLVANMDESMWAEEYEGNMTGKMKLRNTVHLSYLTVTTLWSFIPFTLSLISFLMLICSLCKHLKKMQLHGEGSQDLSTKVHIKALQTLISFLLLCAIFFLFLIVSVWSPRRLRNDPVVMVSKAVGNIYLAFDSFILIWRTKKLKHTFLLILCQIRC

[7] = target: T7, Taste receptor type 2 member 46 (Homo sapiens) (UniProt P59540); assay: Antagonist activity at recombinant human N-terminal rat ST3 receptor-fused TAS2R46 expressed in HEK293T cells co-expressing Galpha16gust44 assessed as inhibition of picrotoxinin-induced intracellular calcium level at 100 uM by FLIPR assay
T7 sequence (whole entry): T3 sequence (P59540 whole entry)

[8] = target: Taste receptor type 2 member 45 (Homo sapiens) (UniProt P59539); assay: Agonist activity at recombinant human N-terminal rat ST3 receptor-fused TAS2R45 expressed in HEK293T cells co-expressing Galpha16gust44 assessed as effect on intracellular calcium level at 100 uM by FLIPR assay
Sequence of Taste receptor type 2 member 45 (Homo sapiens) (P59539 whole entry, the tested form may be a part): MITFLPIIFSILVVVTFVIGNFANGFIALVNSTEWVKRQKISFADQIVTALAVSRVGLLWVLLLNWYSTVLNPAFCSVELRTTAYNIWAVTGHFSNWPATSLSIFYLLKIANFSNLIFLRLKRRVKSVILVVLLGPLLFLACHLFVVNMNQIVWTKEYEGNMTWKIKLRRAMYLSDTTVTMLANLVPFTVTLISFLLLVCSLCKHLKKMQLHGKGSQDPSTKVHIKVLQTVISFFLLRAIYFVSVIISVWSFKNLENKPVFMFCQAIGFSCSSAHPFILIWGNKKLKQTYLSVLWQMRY

| SMILES | Activity [1] | Activity [2] | IC50 [3] [µM] | Activity [4] | Activity [5] | Activity [6] | inhibition [7] | Activity [8] |
| --- | --- | --- | --- | --- | --- | --- | --- | --- |
| C/C1=C\C[C@H](O)[C@@H](C)C[C@H]2OC(=O)[C@@H](C)C2CC1 (some centres undefined) | Active | inactive | 51.4 | inactive | inactive | inactive | Active |  |
| C/C1=C\C[C@H](O)/C(C)=C/[C@H]2OC(=O)[C@@H](C)C2CC1 (some centres undefined) | Active | inactive |  | inactive | inactive | inactive | Active | inactive |
